According to PMC5668913 (Biochemistry and Biophysics Reports, 2015):
pKd: −log10 of the molar value.

Molecular target: T1, MbRIP1 (type 1 ribosome inactivating protein from Momordica balsamina) (Momordica balsamina, UniProt D9J2T9)
T1 sequence (D9J2T9 1-246): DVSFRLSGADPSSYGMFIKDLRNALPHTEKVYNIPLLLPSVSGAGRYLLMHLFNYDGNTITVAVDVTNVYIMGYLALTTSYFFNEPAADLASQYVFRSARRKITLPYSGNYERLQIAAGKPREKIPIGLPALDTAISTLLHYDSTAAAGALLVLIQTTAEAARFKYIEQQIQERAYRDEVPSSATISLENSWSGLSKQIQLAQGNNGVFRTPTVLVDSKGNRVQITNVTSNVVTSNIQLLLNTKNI
Assay: Binding studies using fluorescence

| SMILES | pKd |
| --- | --- |
| Nc1cc[nH]c(=O)n1 [CYS, cytosine] | ~3.64 |
| Nc1ccn([C@@H]2O[C@H](CO)[C@@H](O)[C@H]2O)c(=O)n1 [CYT, cytidine] | ~5.30 |
